Paper PMC11173529, “Structure–Activity Relationship Studies in a Series of Xanthine Inhibitors of SLACK Potassium Channels” (Molecules, 2024)

Biological target: T1, human G288S SLACK (Homo sapiens, UniProt Q5JUK3, G269S)
T1 construct: host or cells: CHO-K1
T1 sequence (Q5JUK3 1-1235 isoform Q5JUK3-3 G288S): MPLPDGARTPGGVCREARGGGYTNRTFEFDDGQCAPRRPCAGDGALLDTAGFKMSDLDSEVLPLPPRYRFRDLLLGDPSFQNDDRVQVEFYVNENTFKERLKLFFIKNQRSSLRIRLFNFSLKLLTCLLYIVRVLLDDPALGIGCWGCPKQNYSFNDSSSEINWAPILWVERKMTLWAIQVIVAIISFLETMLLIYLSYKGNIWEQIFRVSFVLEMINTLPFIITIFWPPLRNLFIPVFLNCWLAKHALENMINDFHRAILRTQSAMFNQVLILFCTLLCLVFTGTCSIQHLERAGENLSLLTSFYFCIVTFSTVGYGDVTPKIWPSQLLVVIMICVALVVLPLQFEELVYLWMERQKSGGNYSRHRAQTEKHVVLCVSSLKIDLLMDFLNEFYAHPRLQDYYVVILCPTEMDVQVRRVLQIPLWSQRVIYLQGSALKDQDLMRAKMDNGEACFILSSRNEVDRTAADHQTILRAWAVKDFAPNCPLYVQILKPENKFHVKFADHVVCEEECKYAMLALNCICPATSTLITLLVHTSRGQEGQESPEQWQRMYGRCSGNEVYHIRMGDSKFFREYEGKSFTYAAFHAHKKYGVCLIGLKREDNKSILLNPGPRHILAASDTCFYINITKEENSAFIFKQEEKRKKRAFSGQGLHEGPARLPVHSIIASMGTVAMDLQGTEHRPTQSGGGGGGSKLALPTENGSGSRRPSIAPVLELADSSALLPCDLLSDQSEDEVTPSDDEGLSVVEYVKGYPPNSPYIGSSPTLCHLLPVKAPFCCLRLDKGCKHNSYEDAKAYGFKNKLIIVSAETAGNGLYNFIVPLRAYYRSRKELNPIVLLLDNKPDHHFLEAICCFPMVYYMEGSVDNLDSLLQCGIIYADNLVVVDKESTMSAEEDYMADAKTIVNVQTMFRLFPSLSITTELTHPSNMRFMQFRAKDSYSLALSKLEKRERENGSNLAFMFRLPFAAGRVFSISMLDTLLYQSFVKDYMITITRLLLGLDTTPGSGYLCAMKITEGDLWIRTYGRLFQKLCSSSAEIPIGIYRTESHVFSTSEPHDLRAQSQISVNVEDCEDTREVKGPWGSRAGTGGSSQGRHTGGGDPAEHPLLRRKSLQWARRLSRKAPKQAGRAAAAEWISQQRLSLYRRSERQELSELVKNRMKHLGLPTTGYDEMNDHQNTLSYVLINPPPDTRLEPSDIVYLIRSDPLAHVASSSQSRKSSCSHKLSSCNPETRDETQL
Assay: Whole-cell APC in CHO cells stably expressing human G288S SLACK
Assay type: cell-based
Conditions: for IC50: APC, CHO cells; for Imax: maximum inhibition at 30 µM standardized to VU0606170 (100%)
Description: Development of a useful SLACK inhibitor in vivo tool will require potent activity at the corresponding mouse ortholog as studies in appropriate mouse models will be critical. Thus, we evaluated analogs 32 and 48 in our APC assay using CHO cells stably expressing mouse WT SLACK (Table 6). […] We were also eager to evaluate the same compounds with regard to their ability to inhibit clinically relevant GOF SLACK mutants. Both the C-terminus A934T mutant and transmembrane G288S mutant have been associated with clinical cases of EIMFS [3, 7].
Stably transfected monoclonal HEK293 cell lines expressing Slick, Maxi-K α1/β3, Maxi-K α1/β4, CaV3.2, GIRK 1/2, KV2.1, KV7.2, NaV1.7, and TASK-1 were generated as previously described. Stably transfected monoclonal HEK293 cell lines expressing hERG were generated as previously described. CHO-K1 cells expressing human Slack and disease-associated human Slack mutations, G288S and A934T, were generated by transfecting a PiggyBac TRE mammalian expression vector (VectorBuilder, Chicago, IL, USA) containing KCNT1. FuGENE 6 (Promega, Madison, WI, USA) transfection reagent and protocol, together with Opti-MEM (Thermo Fisher Scientific, Walkham, MA, USA), were utilized.
Automated patch-clamp recording was performed with a SyncroPatch 768 PE system (Nanion, Munich, Germany) as previously described. Whole-cell recordings were performed at room temperature. Cells were harvested by first washing with PBS without Mg^2+ or Ca^2+ (Gibco, Billings, MT, USA) to remove cell culture media, followed by dissociation with TryPLE (Gibco, Billings, MT, USA). Cells were then resuspended and diluted to 100,000 cells/mL in external solution. External solution contained 105 mM NaCl, 4 mM KCl, 1 mM MgCl2, 5 mM CaCl2, 10 mM HEPES, and 40 mM N-Methyl-D-glucamine chloride, titrated to pH of 7.4 and osmolarity of 300 mOsm/kg; internal solution contained 70 mM NaCl, 70 mM KF, 10 mM KCl, 5 mM EGTA, and 5 mM HEPES, titrated to a pH of 7.2 and osmolarity of 295 mOsm/kg.
The APC protocol was set as follows: Cells were held at a […] of −80 mV for 100 ms, then a ramp protocol was performed from −100 mV to 80 mV at 0.4 mV/ms, followed by holding the cell at −80 mV for another 100 ms, then steps were performed at −20 mV, 0 mV, +20 mV, +40 mV, and +60 mV for 100 ms of each step. Whole-cell currents were measured at 0 mV and normalized to current after external buffer addition. […] To obtain the concentration-response relationship graphs and IC50 values, we take the median value of the last 7 current amplitude values obtained for each set of data points collected for a given concentration at a particular step.

IC50 | SMILES | Imax
0.71 µM | CCCCN(Cc1ccc(F)cc1)c1nc2c(c(=O)n(Cc3cccc(OC)c3)c(=O)n2C)n1C [Analog 80] | –
1 µM | COc1cccc(Cn2c(=O)c3c(nc(N(Cc4cccc(F)c4)CC4CC4)n3C)n(C)c2=O)c1 [Analog 79] | –
0.79 µM | COc1cccc(Cn2c(=O)c3c(nc(N(Cc4ccc(F)cc4)CC4CC4)n3C)n(C)c2=O)c1 [Analog 81] | –
0.88 µM | CCCCN(Cc1cccc(F)c1)c1nc2c(c(=O)n(Cc3cccc(OC)c3)c(=O)n2C)n1C [Analog 78] | –

SMILES | IC50 | Imax
CN(Cc1cccc(F)c1)c1nc2c(c(=O)n(Cc3ccccc3)c(=O)n2C)n1C [Analog 48] | 0.75 µM | 100%
COc1cccc(Cn2c(=O)c3c(nc(N(C)Cc4ccccc4)n3C)n(C)c2=O)c1 [Analog 32] | 0.65 µM | 100%
